{"source": "patent US9686971B2", "about": "“Methods for testing anti-thrombotic agents” (The Trustees of Columbia University in the City of New York, priority 2006, dated 2017)", "key": {"[1]": {"tested_on": "human platelets", "assay": "Tail bleeding assay, human platelet-induced hemostasis in homozygous VWF^1326R>H mice", "assay_type": "in vivo, mouse", "details": "for human platelet-induced hemostatic clot / plug formation (words): PLAVIX 50 mg/kg oral day before and 2 h prior, ReoPro 0.25 mg/kg iv bolus then 0.125 μg/kg/min, 5 min after human platelets", "procedure": "This assay provides an indirect measure of the ability of platelets and VWF to support hemostasis by interacting with the injured vessel wall. It also indirectly determines the function of multiple receptors and ligands on platelets that are required to form a hemostatic plug. […] It is performed by immersing the severed tip (10 mm) of the animal's tail in isotonic saline at 37° C. and monitoring the length of time required for bleeding to cease. Homozygous mutant mice will be infused with an equal volume of either saline or purified human platelets. Platelet specific antibodies or drugs will be administered as described above and their ability to prolong bleeding time evaluated. All experiments will be stopped at 10 min by cauterizing the tail (51).\nTail cuts were performed 5 min after completion of the infusion of platelets. PLAVIX and ReoPro® were obtained from the research pharmacy at CUMC. For studies involving PLAVIX, animals received a 50 mg/kg oral dose of the drug the day before and 2 h prior to the administration of human platelets."}, "[2]": {"molecular_target": "T1, murine αIIbβ3 (Mus musculus, UniProt O54890+Q9QUM0)", "T1 sequence (Q9QUM0 32-1033)": "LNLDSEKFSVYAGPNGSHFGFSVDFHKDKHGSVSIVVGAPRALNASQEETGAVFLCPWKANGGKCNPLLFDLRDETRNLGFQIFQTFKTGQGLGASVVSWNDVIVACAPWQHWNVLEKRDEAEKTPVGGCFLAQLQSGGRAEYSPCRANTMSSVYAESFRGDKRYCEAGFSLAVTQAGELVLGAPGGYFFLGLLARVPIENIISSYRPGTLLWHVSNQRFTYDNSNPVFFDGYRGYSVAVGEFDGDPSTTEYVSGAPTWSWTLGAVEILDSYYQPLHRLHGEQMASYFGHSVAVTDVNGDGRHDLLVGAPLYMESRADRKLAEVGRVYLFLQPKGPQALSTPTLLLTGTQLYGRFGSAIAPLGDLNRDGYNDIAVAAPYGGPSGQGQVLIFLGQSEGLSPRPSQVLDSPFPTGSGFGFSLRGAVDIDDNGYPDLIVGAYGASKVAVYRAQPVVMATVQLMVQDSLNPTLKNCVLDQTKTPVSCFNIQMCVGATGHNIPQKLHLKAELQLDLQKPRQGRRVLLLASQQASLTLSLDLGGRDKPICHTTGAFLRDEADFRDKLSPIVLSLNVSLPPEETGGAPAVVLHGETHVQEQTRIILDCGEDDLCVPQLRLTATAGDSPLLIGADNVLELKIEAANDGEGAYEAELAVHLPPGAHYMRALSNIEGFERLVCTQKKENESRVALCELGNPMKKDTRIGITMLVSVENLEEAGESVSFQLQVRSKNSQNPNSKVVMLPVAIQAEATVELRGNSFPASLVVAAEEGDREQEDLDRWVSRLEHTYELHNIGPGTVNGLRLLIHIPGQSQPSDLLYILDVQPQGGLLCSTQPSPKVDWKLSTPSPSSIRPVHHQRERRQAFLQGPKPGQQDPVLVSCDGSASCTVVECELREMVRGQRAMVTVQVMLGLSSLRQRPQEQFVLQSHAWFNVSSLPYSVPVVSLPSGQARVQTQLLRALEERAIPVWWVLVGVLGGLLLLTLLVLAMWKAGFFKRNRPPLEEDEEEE", "T1 sequence (O54890 26-787)": "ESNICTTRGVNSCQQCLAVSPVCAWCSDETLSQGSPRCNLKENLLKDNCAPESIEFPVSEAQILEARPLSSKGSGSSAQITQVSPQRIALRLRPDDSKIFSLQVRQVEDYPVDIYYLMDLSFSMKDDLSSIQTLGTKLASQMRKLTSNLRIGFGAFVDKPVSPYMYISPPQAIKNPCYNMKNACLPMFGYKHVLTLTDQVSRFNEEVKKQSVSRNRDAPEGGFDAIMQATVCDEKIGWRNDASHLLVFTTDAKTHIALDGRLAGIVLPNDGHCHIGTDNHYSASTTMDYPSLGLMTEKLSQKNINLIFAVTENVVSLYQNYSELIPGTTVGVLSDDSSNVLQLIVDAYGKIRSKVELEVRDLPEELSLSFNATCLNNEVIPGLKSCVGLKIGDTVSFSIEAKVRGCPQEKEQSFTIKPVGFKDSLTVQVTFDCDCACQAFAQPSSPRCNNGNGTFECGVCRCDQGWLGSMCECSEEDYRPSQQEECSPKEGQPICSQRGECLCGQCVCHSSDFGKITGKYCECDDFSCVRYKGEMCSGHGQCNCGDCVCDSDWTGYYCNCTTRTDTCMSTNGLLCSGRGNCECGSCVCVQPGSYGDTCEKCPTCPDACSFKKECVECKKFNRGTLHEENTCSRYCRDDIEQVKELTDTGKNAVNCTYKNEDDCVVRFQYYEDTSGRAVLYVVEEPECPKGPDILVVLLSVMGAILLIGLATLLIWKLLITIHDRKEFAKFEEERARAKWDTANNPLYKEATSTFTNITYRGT", "details": "cited from earlier work"}}}
{"substance": "abciximab: Fab fragment of the chimeric human-mouse monoclonal antibody 7E3, which blocks the function of αIIbβ3 on human platelets", "values": [{"measurement": "human platelet-induced hemostatic clot / plug formation (words)", "setting": "[1]", "result": "completely disrupted"}, {"measurement": "human platelet-induced hemostatic clot / plug formation (words)", "setting": "[1]; listed as ReoPro", "result": "prevented the formation of a hemostatic plug"}, {"measurement": "mean bleeding time", "setting": "[1]; homozygous VWF^1326R>H mice, given after infusion of human platelets", "result": 579, "unit": "s"}, {"measurement": "binding / function of murine αIIbβ3", "setting": "[2]", "result": "does not bind or disrupt the function of murine αIIbβ3"}]}
